From the supplement of paper PMC10307832

What was measured:
Assay in all cases: relative viability (nuclei count vs DMSO), 5 days (fraction); higher = more cells survive
[1] = compound: CCN1C(=O)C2=CC(=C(N=C2N(C1=O)C3CC3)N)C(=O)N + CS(=O)(=O)CCNCc1ccc(-c2ccc3ncnc(Nc4ccc(OCc5cccc(F)c5)c(Cl)c4)c3c2)o1 [Lapatinib] (partner 2 µM)
How it was run: (§1)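 Values are medians from duplicate plates. Each reflects relative viability, defined as the nuclei count of treated wells over that of vehicle wells. Lung cancer cell lines in 1536-well plates were pin-tool dosed one day after seeding with one drug alone or with a fixed anchor-drug dose plus five library-drug doses (not always all listed) in √10 steps, then fixed, stained and imaged at 4× after 5 days.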

[2] = compound: CCN1C(=O)C2=CC(=C(N=C2N(C1=O)C3CC3)N)C(=O)N + Cc1nc(NC(=O)N2CCC[C@H]2C(N)=O)sc1-c1ccnc(C(C)(C)C(F)(F)F)c1 [Alpelisib] (partner 2 µM)
How it was run: as §1

[3] = compound: CCN1C(=O)C2=CC(=C(N=C2N(C1=O)C3CC3)N)C(=O)N + CC1(C)CCC(c2ccc(Cl)cc2)=C(CN2CCN(c3ccc(C(=O)NS(=O)(=O)c4ccc(N[C@H](CCN5CCOCC5)CSc5ccccc5)c(S(=O)(=O)C(F)(F)F)c4)cc3)CC2)C1 [Navitoclax] (partner 0.5 µM)
How it was run: as §1

[4] = compound: CCN1C(=O)C2=CC(=C(N=C2N(C1=O)C3CC3)N)C(=O)N + CC(C)C[C@H](NC(=O)[C@H](Cc1ccccc1)NC(=O)c1cnccn1)B(O)O [Bortezomib] (partner 0.002 µM)
How it was run: as §1

[5] = compound: CCN1C(=O)C2=CC(=C(N=C2N(C1=O)C3CC3)N)C(=O)N + C[C@]1(O)C[C@@H](c2nc(-c3ccc4ccc(-c5ccccc5)nc4c3)c3c(N)nccn32)C1 [Linsitinib] (partner 1 µM)
How it was run: as §1

[6] = compound: CCN1C(=O)C2=CC(=C(N=C2N(C1=O)C3CC3)N)C(=O)N + C[C@@H](Oc1cc(-c2cnn(C3CCNCC3)c2)cnc1N)c1c(Cl)ccc(F)c1Cl [Crizotinib] (partner 1 µM)
How it was run: as §1

[7] = compound: CCN1C(=O)C2=CC(=C(N=C2N(C1=O)C3CC3)N)C(=O)N + CS(=O)(=O)N1CCN(Cc2cc3nc(-c4cccc5[nH]ncc45)nc(N4CCOCC4)c3s2)CC1 [Pictilisib] (partner 1 µM)
How it was run: as §1

[8] = compound: CCN1C(=O)C2=CC(=C(N=C2N(C1=O)C3CC3)N)C(=O)N + COc1cc2c(Oc3ccc(NC(=O)C4(C(=O)Nc5ccc(F)cc5)CC4)cc3F)ccnc2cc1OCCCN1CCOCC1 [Foretinib] (partner 0.25 µM)
How it was run: as §1

[9] = compound: CCN1C(=O)C2=CC(=C(N=C2N(C1=O)C3CC3)N)C(=O)N + O=C(c1cc(Cc2n[nH]c(=O)c3ccccc23)ccc1F)N1CCN(C(=O)C2CC2)CC1 [Olaparib] (partner 8 µM)
How it was run: as §1

[10] = compound: CCN1C(=O)C2=CC(=C(N=C2N(C1=O)C3CC3)N)C(=O)N
How it was run: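 MetaXpress counted nuclei in 4× images of lung cancer cell lines that had been fixed, permeabilised and Hoechst-stained in one step. Before that, cells in 1536-well plates were kept overnight at 37 °C, pinned with five √10-spaced library-drug doses on vehicle-anchored plates, and cultured 5 days without medium change. Viability takes treated-well nuclei over vehicle-well nuclei and uses the median across plates. Plates were accepted only at control CV below 25% and at least one doubling.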

[11] = compound: CCN1C(=O)C2=CC(=C(N=C2N(C1=O)C3CC3)N)C(=O)N + N=C(N)NC(=N)NCCc1ccccc1 [Phenformin] (partner 250 µM)
How it was run: as §1

[12] = compound: CCN1C(=O)C2=CC(=C(N=C2N(C1=O)C3CC3)N)C(=O)N + Cc1cc(Nc2cc(N3CCN(C)CC3)nc(Sc3ccc(NC(=O)C4CC4)cc3)n2)n[nH]1 [Tozasertib] (partner 0.1 µM)
How it was run: as §1

[13] = compound: CCN1C(=O)C2=CC(=C(N=C2N(C1=O)C3CC3)N)C(=O)N + COc1cccc2cc(-c3nc([C@H]4CC[C@H](C(=O)O)CC4)n4ncnc(N)c34)[nH]c12 [OSI-027] (partner 0.5 µM)
How it was run: as §1

[14] = compound: CCN1C(=O)C2=CC(=C(N=C2N(C1=O)C3CC3)N)C(=O)N + CCNC(=O)c1noc(-c2cc(C(C)C)c(O)cc2O)c1-c1ccc(CN2CCOCC2)cc1 [Luminespib] (partner 0.01 µM)
How it was run: as §1

[15] = compound: CCN1C(=O)C2=CC(=C(N=C2N(C1=O)C3CC3)N)C(=O)N + Cc1nc(Nc2ncc(C(=O)Nc3c(C)cccc3Cl)s2)cc(N2CCN(CCO)CC2)n1 [Dasatinib] (partner 0.075 µM)
How it was run: as §1

NCI-H1299
relative viability ([1]; first compound 0.253 µM): 1.06
relative viability ([1]; first compound 0.8 µM): 0.978
relative viability ([1]; first compound 2.53 µM): 0.933
relative viability ([1]; first compound 8 µM): 0.947
relative viability ([2]; first compound 0.253 µM): 1.01
relative viability ([2]; first compound 0.8 µM): 1.15
relative viability ([2]; first compound 2.53 µM): 1.05
relative viability ([2]; first compound 8 µM): 1.08
relative viability ([3]; first compound 0.253 µM): 1.07
relative viability ([3]; first compound 0.8 µM): 1.06
relative viability ([3]; first compound 2.53 µM): 1.04
relative viability ([3]; first compound 8 µM): 1.01
relative viability ([4]; first compound 0.253 µM): 1.01
relative viability ([4]; first compound 0.8 µM): 1.01
relative viability ([4]; first compound 2.53 µM): 1
relative viability ([4]; first compound 8 µM): 0.999
relative viability ([5]; first compound 0.253 µM): 0.991
relative viability ([5]; first compound 0.8 µM): 0.98
relative viability ([5]; first compound 2.53 µM): 0.93
relative viability ([5]; first compound 8 µM): 0.982
relative viability ([6]; first compound 0.253 µM): 1
relative viability ([6]; first compound 0.8 µM): 0.914
relative viability ([6]; first compound 2.53 µM): 0.924
relative viability ([6]; first compound 8 µM): 0.966
relative viability ([7]; first compound 0.253 µM): 0.879
relative viability ([7]; first compound 0.8 µM): 0.81
relative viability ([7]; first compound 2.53 µM): 0.701
relative viability ([7]; first compound 8 µM): 0.962
relative viability ([8]; first compound 0.253 µM): 1.16
relative viability ([8]; first compound 0.8 µM): 1.1
relative viability ([8]; first compound 2.53 µM): 1.08
relative viability ([8]; first compound 8 µM): 1.05
relative viability ([9]; first compound 0.253 µM): 0.922
relative viability ([9]; first compound 0.8 µM): 0.956
relative viability ([9]; first compound 2.53 µM): 0.918
relative viability ([9]; first compound 8 µM): 0.942
relative viability ([10]; 0.253 µM): 1.02
relative viability ([10]; 0.8 µM): 1.02
relative viability ([10]; 2.53 µM): 0.986
relative viability ([10]; 8 µM): 0.976

NCI-H1623
relative viability ([11]; first compound 0.253 µM): 0.514
relative viability ([11]; first compound 0.8 µM): 0.59
relative viability ([11]; first compound 2.53 µM): 0.63
relative viability ([11]; first compound 8 µM): 0.567
relative viability ([12]; first compound 0.253 µM): 0.405
relative viability ([12]; first compound 0.8 µM): 0.442
relative viability ([12]; first compound 2.53 µM): 0.438
relative viability ([12]; first compound 8 µM): 0.48
relative viability ([13]; first compound 0.253 µM): 0.439
relative viability ([13]; first compound 0.8 µM): 0.428
relative viability ([13]; first compound 2.53 µM): 0.455
relative viability ([13]; first compound 8 µM): 0.446
relative viability ([14]; first compound 0.253 µM): 0.454
relative viability ([14]; first compound 0.8 µM): 0.452
relative viability ([14]; first compound 2.53 µM): 0.546
relative viability ([14]; first compound 8 µM): 0.473
relative viability ([15]; first compound 0.253 µM): 0.518
relative viability ([15]; first compound 0.8 µM): 0.589
relative viability ([15]; first compound 2.53 µM): 0.627
relative viability ([15]; first compound 8 µM): 0.595
relative viability ([8]; first compound 0.253 µM): 0.856
relative viability ([8]; first compound 0.8 µM): 0.862
relative viability ([8]; first compound 2.53 µM): 0.94
relative viability ([8]; first compound 8 µM): 0.939
relative viability ([10]; 0.253 µM): 0.922
relative viability ([10]; 0.8 µM): 0.992
relative viability ([10]; 2.53 µM): 1.02
relative viability ([10]; 8 µM): 1.13
